Measurements reported in patent publication US20040152904A1, “Delta1 pyrrolines” (priority 2001, published 2004).

Assays:
[1] = test system: caterpillars of the diamond-back moth (Plutella xylostella); test: Plutella test; format: in vivo; details: 40 ppm active compound, cabbage leaves dipped
Description: Plutella Test Solvent: 30 parts by weight of dimethylformamide Emulsifier: 1 part by weight of alkylaryl polyglycol ether To produce a suitable preparation of active compound, 1 part by weight of active compound is mixed with the stated amounts of solvent and emulsifier, and the concentrate is diluted with emulsifier-containing water to the desired concentration. Cabbage leaves (Brassica oleracea) are treated by being dipped into the preparation of active compound of the desired concentration and are populated with caterpillars of the diamond-back moth (Plutella xylostella) whilst the leaves are still moist. After the desired period of time, the kill in % is determined. 100% means that all caterpillars have been killed; 0% means that none of the caterpillars have been killed.

Lucilia cuprina larvae = test: Blowfly larvae test / development-inhibitory action; format: in vivo; details: 100 ppm active compound
Description: Blowfly Larvae Test/Development-Inhibitory Action Test animals: Lucilia cuprina larvae Solvent: Dimethyl sulphoxide 20 mg of active compound are dissolved in 1 ml of dimethyl sulphoxide, more dilute concentrations are prepared by dilution with distilled water. About 20 Lucilia cuprina larvae are introduced into a test tube which contains about 1 cm^3 of horse meat and 0.5 ml of the preparation of active compound to be tested. The efficacy of the preparation of active compound is determined after 24 and 48 hours. The test tubes are transferred into beakers whose bottom is covered with sand. After a further 2 days, the test tubes are removed and the pupae are counted. The activity of the preparation of active compound is assessed by the number of flies that have hatched after 1.5 times the development time of an untreated control. 100% means that no flies have hatched; 0% means that all flies have hatched normally.

Row | Compound | Kill rate in % after 6d [1] [%] | Kill rate in % after 48h (Lucilia cuprina larvae) [%]
1 | CC(C)(C)n1nnc(-c2ccc(-c3ccc(C4CCC(c5c(F)cccc5F)=N4)cc3)cc2)n1 (stereo not drawn) [drawing 60] | 100 | 
2 | CCn1nnc(-c2ccc(-c3ccc(C4CCC(c5c(F)cccc5F)=N4)cc3)cc2)n1 (stereo not drawn) [drawing 71] |  | 100
3 | CCOCn1nnc(-c2ccc(-c3ccc(C4CCC(c5c(F)cccc5F)=N4)cc3)cc2)n1 (stereo not drawn) [drawing 72] |  | 70
